# Measured values reported in US8247211B2, “Glycopeptide antibiotics” (American Cyanamid Company, priority 2001, dated 2012).
# Numbered stars: 1 amine (or outer) side, 2 acyl side, 3 side chain; on linkers, the order of the positions; unused ones are H or OH. Square brackets hold non-standard residues; d marks the D form. Peptide text beside a SMILES is read from it. * marks the point of attachment. ξ: configuration not given here. X1 = N=C1NCC(C(O)C(N[*:1])C(=O)[*:2])N1C1OC(CO)C(O)C(O)C1O; ξEnduracididine(βξ-OH,4'ξ) = N=C1NCC(C(O)C(N)C(=O)O)N1; X2 = OCC1OC(OC2C(CO)OC(*)C(O)C2O)C(O)C(O)C1O; Diphenylacetyl = O=C(C(c1ccccc1)c1ccccc1)*; ξPhe(βξ-Me) = CC(c1ccccc1)C(N)C(=O)O
# Columns and labels:
# Assay in all cases: In vitro antibacterial evaluation: minimum inhibitory concentration (MIC), broth dilution method
# Type in all cases: cell-based
# Enterococcus sp. = conditions: strain GC 4557
# Protocol: (§1) The minimum inhibitory concentration (MIC), the lowest concentration of the antibiotic which inhibits growth of the test organism, is determined by the broth dilution method using Muller-Hinton II […] (Baltimore Biological Laboratories) following the recommendations of the National Committee for Clinical Laboratory Standards [Methods for dilution antimicrobial susceptibility tests for bacteria that grow aerobically, approved standard M7-A2, National Committee for Clinical Laboratory Standards, Villanova, Pa].
# (§2) An inoculum level of 5×10^5 CFU/mL, and a range of antibiotic concentrations (64-0.06 μg/mL) is used. […] The test organisms include a spectrum of Gram-positive bacteria comprised of Staphylococcus sp., Streptococcus sp. and Enterococcus sp. These organisms include recent clinical isolates that are resistant to methicillin, penicillin and/or vancomycin.
# Streptococcus sp. = tested on: Streptococcus sp.
# Protocol: as §1, §2
# Staphylococcus sp. = conditions: for MIC Coagulase Negative Staphylococcus (GC 4549): strain GC 4549; for MIC Coagulase Negative Staphylococcus (ID-3941): strain ID-3941
# Protocol: as §1, §2
# [1] = broth dilution, 18 hours at 35° C.
smiles,measurement,setting,value
"CC(c1ccccc1)C1NC(=O)CNC(=O)C(COC(=O)C(c2ccccc2)c2ccccc2)NC(=O)C(C(O)C2CNC(=N)N2C2OC(CO)C(O)C(O)C2O)NC(=O)C(C(O)C2CNC(=N)N2)NC(=O)C(Cc2ccc(OC3OC(CO)C(OC4OC(CO)C(O)C(O)C4O)C(O)C3O)cc2)NC1=O (stereo not drawn) [Example 96a, Cyclo[glycyl-β-methylphenylalanyl-O-[4-O-hexopyranosylhexopyranosyl)tyrosyl-3-(2-iminoimidazolidin-4-yl)seryl-3-(3-hexopyranosyl-2-iminoimidazolidin-4-yl)seryl-O-(diphenylacetyl)-seryl]] (cyclo(G[ξPhe(βξ-Me)]Y(X2)[ξEnduracididine(βξ-OH,4'ξ)][X1]S(Diphenylacetyl)); configuration not given here)",MIC Enterococcus faecium (GC 4557),Enterococcus sp.,32 µg/mL
same,MIC Streptococcus agalactiae (GC 4564),Streptococcus sp.; strain GC 4564,32 µg/mL
same,MIC Streptococcus pneumoniae (GC 4565),Streptococcus sp.; strain GC 4565,16 µg/mL
same,MIC Streptococcus pyogenes (ID-3187),Streptococcus sp.; strain ID-3187,32 µg/mL
same,MIC Coagulase Negative Staphylococcus (GC 4549),Staphylococcus sp.,64 µg/mL
same,MIC Coagulase Negative Staphylococcus (GC 4549),Staphylococcus sp.; [1],64 µg/mL
same,MIC Coagulase Negative Staphylococcus (ID-3941),Staphylococcus sp.,64 µg/mL
same,MIC Coagulase Negative Staphylococcus (ID-3941),Staphylococcus sp.; [1],64 µg/mL
